Laboratory results reported in patent US9243036B2, “Anti-microbial activity of synthetic peptides” (THE UNITED STATES OF AMERICA, as represented by the …, priority 2012, dated 2016).

Experiments:
[1] = system: E. coli and P. aeruginosa; test: MIC of polymyxin B (bacterium not stated; E. coli / P. aeruginosa context); assay type: cell-based
Experimental: In vitro anti-bacterial activity of EC5. The test microorganisms mentioned earlier in the experimental procedures were used to evaluate the bactericidal activity of EC5 peptide. The minimum inhibitory concentrations (MICs) of the peptide were determined by standard dilution assay as recommended by Clinical and Laboratory Standard Institutes (CLSI) guidelines (Azad, M. A., et al., (2011) Antimicrob. Agents Chemother. 55, 2137-2145). Bacteria were grown to mid-logarithmic phase in cation-supplemented Mueller-Hinton broth (MHB) (Becton Dickinson, Sparks, Md.) on an orbital shaker (37° C.) and diluted to a 0.5 McFarland standard to a final volume of 1 ml. Decreasing concentrations of the peptide were incubated with the microorganisms. Results were recorded by visual inspection after 24 h of incubation at 37° C. Assay was repeated three separate times to ensure reproducibility. […]
Cytoplasmic depolarization assay(Δψ) was performed using the membrane potential sensitive dye 3,3′-dipropylthiadicarbocyanine iodide (diSC3-5) (Zang, L. et al., (2001) J. Biol. Chem. 276, 35714-35722). This dye can cross the outer membrane of the bacterial cell and become concentrated in the cytoplasmic membrane and thereby it self-quenches its own fluorescence. Upon addition of a membrane-permeabilizing agent the dye is released with consequent increase in the fluorescence. […]

[2] = system: P. aeruginosa; test: Cytoplasmic membrane depolarization assay (diSC3-5) with parallel CFU plating; assay type: cell-based
Experimental: (§1) Membrane depolarization activity (Δψ) of the peptide was determined with intact E. coli and P. aeruginosa cells and the membrane potential-sensitive fluorescent dye, 3,3′-dipropylthiadicarbocyanine Iodide (diSC (3)5) (Invitrogen, Oregon), according to described methods (Sims, P. J., et al (1974) Biochemistry 13, 3315-3330). Briefly, bacterial cells of mid-logarithmic phase were harvested by centrifugation and washed twice with HEPES buffer (5 mM HEPES, 5 mM glucose, pH 7.6). The cells were suspended in the same buffer to an OD of 0.05. The cell suspension was incubated with […] diSC (3)5 until maximal uptake of the dye. 100 mM KCl was added to equilibrate the cytoplasmic and external potassium ion concentration of peptide, and fluorescence was monitored at an excitation wavelength of 622 nm and an emission wavelength of 670 nm. Polymyxin B was used as a positive control and S. aureus cells were used as negative control. Simultaneously the cells were plated on NA plates and incubated at 37° C. overnight to assess the number of CFU.
(§2) Cytoplasmic depolarization assay(Δψ) was performed using the membrane potential sensitive dye 3,3′-dipropylthiadicarbocyanine iodide (diSC3-5) (Zang, L. et al., (2001) J. Biol. Chem. 276, 35714-35722). This dye can cross the outer membrane of the bacterial cell and become concentrated in the cytoplasmic membrane and thereby it self-quenches its own fluorescence. Upon addition of a membrane-permeabilizing agent the dye is released with consequent increase in the fluorescence. EC5 at 8 μg/ml and 16 μg/ml caused rapid depolarization of the cytoplasmic membrane in both E. coli and P. aeruginosa resulting in the release of diSC3-5 within 5 min (FIG. 9C). […] However Polymyxin B even at its MIC of 0.5 μg/ml caused slow release of diSC3-5 when compared to EC5.

[3] = system: E. coli; test: as above; assay type: cell-based
Experimental: as §1, §2

[4] = literature; cited from earlier work
[5] = polymyxin B; cited from earlier work
[6] = system: P. aeruginosa; test: Membrane permeability by PI and SYTO9 uptake (LIVE/DEAD BACLIGHT); assay type: cell-based; conditions: even at the lowest concentration used
Experimental: (§3) The effects of EC5 on the membrane integrity of E. coli and P. aeruginosa cells were assessed using the LIVE/DEAD BACLIGHT™ kit (Invitrogen, Oregon) according to the manufacturer's protocol. Membrane integrity of the cells after the addition of different concentrations of peptide EC5 was measured using fluorescence micro plate reader (BioTek Instruments, Winooski, Vt.). Experiments were done in triplicates. PMB was used as a positive control.
(§4) The membrane permeabilizing activity of EC5 was also studied using the SYTO9 and PI staining method. SYTO9 stain labels both live and dead bacteria when alone, but propidium iodide stains only cells with damaged membranes, reducing the level of green fluorescent SYTO9 when both the dyes are present. […] The ratio of green versus red fluorescence can be calculated as a measure of live bacteria. […] Polymyxin B, an AMP with a net charge of +5 with membrane permeabilizing activity was used as positive control.

[7] = system: E. coli; test: as above; assay type: cell-based; conditions: even at the lowest concentration used
Experimental: as §3, §4

[8] = polymyxin B at 3.125 μg/ml, after 5 min of exposure
[9] = polymyxin B at its MIC of 0.5 μg/ml, compared to EC5

Substance: Polymyxin B
- MIC of polymyxin B [1]: 0.5 µg/mL
- time to complete inhibition of CFU ([2]; polymyxin B at 3.125 μg/ml): ≤ 5 min
- release of diSC35 from the cells [2, 8]: minimal release
- release of diSC3-5 [2, 9]: slow release
- time to complete inhibition of CFU ([3]; polymyxin B at 3.125 μg/ml): ≤ 5 min
- release of diSC35 from the cells [3, 8]: minimal release
- release of diSC3-5 [3, 9]: slow release
- toxicity [4]: high toxicity, especially nephrotoxicity
- net charge [5]: +5
- permeabilization of bacterial cell membranes [6]: able to permeabilize almost all bacterial cell membranes
- permeabilization of bacterial cell membranes [7]: able to permeabilize almost all bacterial cell membranes
